Laboratory results published in PubChem BioAssay (NCI).
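GI50 is the concentration that inhibits growth by half. TGI is the concentration that stops growth completely.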

Assays:
Test in all cases: NCI anticancer screen, dose series, 384-well format
[1] = test system: OVCAR-5 ovarian
[2] = test system: T-47D breast
[3] = test system: BT-549 breast
[4] = test system: COLO 205 colon
[5] = test system: HCT-15 colon
[6] = test system: 786-0 renal
[7] = test system: NCI-H460 NSCLC
[8] = test system: ACHN renal
[9] = test system: SF-539 CNS
[10] = test system: U251 glioblastoma
[11] = test system: CCRF-CEM leukemia
[12] = test system: SK-MEL-5 melanoma
[13] = test system: MALME-3M melanoma
[14] = test system: MDA-MB-435 melanoma
[15] = test system: A498 renal
[16] = test system: UACC-257 melanoma
[17] = test system: MCF7 breast
[18] = test system: HOP-62 NSCLC
[19] = test system: KM12 colon
[20] = test system: SK-MEL-28 melanoma
[21] = test system: SK-OV-3 ovarian
[22] = test system: K-562 leukemia
[23] = test system: SR leukemia
[24] = test system: HT29 colon
[25] = test system: NCI-H322M lung
[26] = test system: SN12C renal
[27] = test system: NCI-H226 lung
[28] = test system: A549 NSCLC
[29] = test system: PC-3 prostate
[30] = test system: NCI-H522 lung
[31] = test system: UACC-62 melanoma
[32] = test system: SK-MEL-2 melanoma
[33] = test system: HL-60(TB) leukemia
[34] = test system: DU-145 prostate
[35] = test system: UO-31 renal
[36] = test system: OVCAR-8 ovarian
[37] = test system: HCC-2998 colon
[38] = test system: MOLT-4 leukemia
[39] = test system: SF-268 CNS
[40] = test system: NCI/ADR-RES ovarian
[41] = test system: CAKI-1 renal
[42] = test system: RXF 393 renal
[43] = test system: IGROV1 ovarian
[44] = test system: SF-295 CNS
[45] = test system: MDA-MB-231 breast
[46] = test system: OVCAR-3 ovarian
[47] = test system: M14 melanoma
[48] = test system: OVCAR-4 ovarian
[49] = test system: SNB-19 CNS
[50] = test system: TK-10 renal
[51] = test system: LOX IMVI melanoma
[52] = test system: NCI-H23 lung
[53] = test system: MDA-MB-468 breast
[54] = test system: SW-620 colon
[55] = test system: RPMI-8226 leukemia

CN(C)C/C=C/C(=O)Nc1ccc(C(=O)Nc2cccc(Nc3ncc(Cl)c(-c4c[nH]c5ccccc45)n3)c2)cc1
GI50 [1]: 21.4 nM
TGI [1]: 1200 nM
GI50 [2]: 14.2 nM
TGI [2]: 73.3 nM
GI50 [3]: < 10 nM
TGI [3]: 13.7 nM
GI50 [4]: < 10 nM
TGI [4]: 13.4 nM
GI50 [5]: 45.1 nM
TGI [5]: 213 nM
GI50 [6]: 23.9 nM
TGI [6]: 83.3 nM
GI50 [7]: 17.3 nM
TGI [7]: 37.2 nM
GI50 [8]: 20.5 nM
TGI [8]: 83 nM
GI50 [9]: < 10 nM
TGI [9]: 19.5 nM
GI50 [10]: < 10 nM
TGI [10]: 27.4 nM
GI50 [11]: < 10 nM
TGI [11]: < 10 nM
GI50 [12]: < 10 nM
TGI [12]: 20.7 nM
GI50 [13]: 14.7 nM
TGI [13]: 29.9 nM
GI50 [14]: 13.3 nM
TGI [14]: 35.4 nM
GI50 [15]: 17.2 nM
TGI [15]: 55.9 nM
GI50 [16]: < 10 nM
TGI [16]: 21.3 nM
GI50 [17]: < 10 nM
TGI [17]: 166 nM
GI50 [18]: 15.8 nM
TGI [18]: 47.9 nM
GI50 [19]: 17.7 nM
TGI [19]: 41.1 nM
GI50 [20]: < 10 nM
TGI [20]: 15.2 nM
GI50 [21]: 11.4 nM
TGI [21]: 45.9 nM
GI50 [22]: < 10 nM
TGI [22]: 103 nM
GI50 [23]: < 10 nM
TGI [23]: < 10 nM
GI50 [24]: 20 nM
TGI [24]: 47.5 nM
GI50 [25]: 20.9 nM
TGI [25]: 49.5 nM
GI50 [26]: 10.3 nM
TGI [26]: 29.4 nM
GI50 [27]: 12.4 nM
TGI [27]: 33.6 nM
GI50 [28]: 31.1 nM
TGI [28]: 110 nM
GI50 [29]: 20.6 nM
TGI [29]: 54.5 nM
GI50 [30]: < 10 nM
TGI [30]: < 10 nM
GI50 [31]: < 10 nM
TGI [31]: 18.7 nM
GI50 [32]: < 10 nM
TGI [32]: 13.3 nM
GI50 [33]: < 10 nM
TGI [33]: < 10 nM
GI50 [34]: 16.2 nM
TGI [34]: 60.2 nM
GI50 [35]: 105 nM
TGI [35]: 372 nM
GI50 [36]: 16.5 nM
TGI [36]: 39.8 nM
GI50 [37]: < 10 nM
TGI [37]: 20.6 nM
GI50 [38]: < 10 nM
TGI [38]: 12.4 nM
GI50 [39]: < 10 nM
TGI [39]: 17.4 nM
GI50 [40]: 525 nM
TGI [40]: 12200 nM
GI50 [41]: 14.2 nM
TGI [41]: 46.9 nM
GI50 [42]: < 10 nM
TGI [42]: < 10 nM
GI50 [43]: 12.5 nM
TGI [43]: 51.9 nM
GI50 [44]: 31.4 nM
TGI [44]: 99.4 nM
GI50 [45]: < 10 nM
TGI [45]: 44.8 nM
GI50 [46]: < 10 nM
TGI [46]: 11 nM
GI50 [47]: 14.5 nM
TGI [47]: 29.5 nM
GI50 [48]: < 10 nM
TGI [48]: 25.4 nM
GI50 [49]: 20.1 nM
TGI [49]: 174 nM
GI50 [50]: 21.8 nM
TGI [50]: 55.9 nM
GI50 [51]: < 10 nM
TGI [51]: 28.2 nM
GI50 [52]: 10.6 nM
TGI [52]: 25.4 nM
GI50 [53]: < 10 nM
TGI [53]: 14.4 nM
GI50 [54]: < 10 nM
TGI [54]: 42 nM
GI50 [55]: 13.7 nM
TGI [55]: 26.8 nM
